In PubChem BioAssay (NCI):
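The compound was tested at five concentrations on cells cultured in 96-well plates, with a 48-hour exposure period. The concentration for full growth arrest is given as TGI.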

Columns and labels:
Assay in all cases: NCI anticancer screen, dose series, 48 h
[1] = test system: NCI-H460 lung
[2] = test system: COLO 205 colon
[3] = test system: MDA-N
[4] = test system: MDA-MB-435
[5] = test system: A498 renal
[6] = test system: NCI-H522 lung
[7] = test system: KM12 colon
[8] = test system: HT29 colon
[9] = test system: SF-295 CNS
[10] = test system: SK-MEL-5 melanoma
[11] = test system: NCI/ADR-RES ovarian
[12] = test system: LOX IMVI melanoma

Row | Structure (SMILES) | TGI [1] [µM] | TGI [2] [µM] | TGI [3] [µM] | TGI [4] [µM] | TGI [5] [µM] | TGI [6] [µM] | TGI [7] [µM] | TGI [8] [µM] | TGI [9] [µM] | TGI [10] [µM] | TGI [11] [µM] | TGI [12] [µM]
1 | CC(C)(CN1CCCCC1)C(=O)CC(SCCS(=O)(=O)O)c1ccc(Cl)cc1 (centres undefined) | 25.2 | 8.94 | 9.57 | 10.6 | 13.5 | 6.29 | 19.2 | 12.6 | 15.8 | 20.8 | 34 | –
2 | S=c1[nH]nc(CCCCCCCCc2n[nH]c(=S)o2)o1 | > 100 | > 100 | > 100 | > 100 | > 100 | – | > 100 | > 100 | > 100 | > 100 | > 100 | > 100
3 | CCCCCCCc1ccc(-c2nnc(N=Nc3ccc(OCCCCC)cc3)s2)s1 | > 100 | > 100 | > 100 | > 100 | > 100 | > 100 | > 100 | > 100 | > 100 | > 100 | > 100 | –
4 | COc1ccc(/C=N/Nc2nnc3c(n2)c2ccccc2c2nn(-c4ccccc4Cl)nc23)cc1 | – | > 100 | > 100 | > 100 | > 100 | > 100 | > 100 | > 100 | > 100 | > 100 | > 100 | > 100
5 | CC(=O)O[C@H]1C(=O)[C@@]2(C)[C@H]([C@H](OC(=O)c3ccco3)[C@]3(O)C[C@H](OC(=O)[C@H](O)[C@@H](NC(=O)c4ccccc4)c4ccccc4)C(C)=C1C3(C)C)[C@]1(OC(C)=O)CO[C@@H]1C[C@@H]2O | > 13 | > 5.82 | 0.0602 | 0.0591 | > 25 | – | > 25 | > 25 | > 19.7 | – | > 25 | > 25
6 | CCOC(=O)c1cc2c3c(cc(OC)c2[nH]1)N(C(=O)OCC)CC3 | > 100 | > 100 | > 100 | > 100 | > 100 | – | > 100 | > 100 | > 100 | > 100 | > 100 | > 100
7 | C=CCN1C(=O)CC(=O)N(NC2=NNC3(C(=O)N2)c2ccccc2-c2ccccc23)C1=S | > 100 | 45 | > 100 | > 100 | > 100 | 96.3 | – | > 100 | > 100 | > 100 | > 100 | > 100
8 | COc1ccc(CC[N+]2(C)COc3cc4oc(=O)cc(C)c4cc3C2)cc1OC (centres undefined) | – | > 100 | > 100 | > 100 | > 100 | > 100 | > 100 | > 100 | > 100 | > 100 | > 100 | > 100
9 | Cn1c(=O)c2c(nc(N/N=C3/SCC(=O)N3Cc3ccccc3)n2C)n(C)c1=O | > 100 | > 100 | > 100 | > 100 | > 100 | > 100 | > 100 | > 100 | > 100 | > 100 | > 100 | –
10 | CC(=O)N[C@@H](Cc1ccc(O)cn1)C(=O)NC1CCCCC1 | – | > 100 | > 100 | > 100 | > 100 | > 100 | > 100 | > 100 | > 100 | > 100 | > 100 | > 100
11 | COc1ccc(/C=N/NC(=S)Nc2cc(C)ccc2OC)cc1 | – | 32.7 | 70.7 | > 100 | > 100 | 55.9 | > 100 | 79.4 | > 100 | 30 | > 100 | > 100
12 | COC(=O)C(=O)C(C(=O)C(=O)Nc1ccc(C)c(C)c1)c1nc2ccc([N+](=O)[O-])cc2[nH]c1=O (centres undefined) | > 100 | – | > 100 | > 100 | > 100 | > 100 | > 100 | > 100 | > 100 | > 100 | > 100 | > 100
13 | CCCCCCCCCCCCC1N=C(N)N2CCCC2=C1C(=O)OC (centres undefined) | 3.23 | 4.17 | 4.72 | 3.09 | 47.1 | 3.26 | 3.94 | 3.06 | 3.39 | 4.88 | 20.4 | –
14 | CSc1nc[nH]c1C(N)=S | – | > 100 | > 100 | > 100 | > 100 | > 100 | > 100 | > 100 | > 100 | > 100 | > 100 | > 100
15 | CCOC(=O)C1CCC(=O)N1C(=O)c1ccc(Cl)cc1 (centres undefined) | > 100 | – | > 100 | > 100 | > 100 | > 100 | > 100 | > 100 | > 100 | > 100 | > 100 | > 100
